Experimental data reported in US11952365B2, “Anti-viral compounds” (Aligos Therapeutics, Inc., priority 2020, dated 2024).
Like-named read-outs stand apart in the source and are kept apart here.

Columns and labels:
[1] = in vitro; settings: African green monkey, VeroE6 + CP (CC50), Vero E6-eGFP cells with CP-100356, absence of virus, MTS
[2] = tested on: human beta-coronavirus OC43; test: microbe, parasite or virus in culture; format: cell-based; settings: Betacoronavirus 1, OC43, HeLa, 144 h
[3] = target: T1, human cathepsin L (Homo sapiens, UniProt P07711); test: cathepsin L assay; format: biochemical; settings: 10 pM human cathepsin L, Z-FR-AMC 2 μM, class symbols
T1 construct: purchased R&D Systems
Outline: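 Reactions began by adding 2 μM (final) Z-FR-AMC substrate to 10 pM human cathepsin L that had been preincubated 30 min with inhibitor. Kinetic AMC fluorescence at 355/460 nm over 30 min at 2-min intervals; four-parameter fitting gave IC50 values.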

[4] = target: 3CLpro (Severe acute respiratory syndrome coronavirus 2, UniProt P0DTD1); test: SARS-CoV-2 3CLpro protease assay (duplex, SAMDI-MS); format: biochemical; set-up: For the duplex assay, 3CLpro and HRV3C was added; settings: 3CLpro, 30 mins preincubation, class symbols; read-out: SARS-Cov-2 IC50
[5] = target: HRV3C (Human rhinovirus 14, UniProt P03303); test: HRV3C protease assay (duplex, SAMDI-MS); format: biochemical, HRV; settings: 30 mins preincubation
Outline: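 Readout is SAMDI mass spectrometry: biotinylated substrates, products and internal standards were immobilized on neutravidin monolayers and product formation taken as the AUC ratio to internal standard. Reactions ran 30 min at ambient temperature after 30 min compound preincubation, in duplex with 3CLpro. IC50 values came from four-parameter curve fitting.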

[6] = Cytotoxicity plates without OC43 virus (cell-titer-glo); format: cell-based, human; settings: human; HeLa cells without OC43 virus, class symbols
Outline: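 Run as a virus-free counterpart of the OC43 cytopathic-effect assay. Attached HeLa cells received compound dilutions in EMEM with 2% FBS and were kept 6 days at 33 °C. Cell viability was then measured by CellTiter-Glo luminescence.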

[7] = in vitro; settings: human
[8] = tested on: SARS-CoV-2-GHB-03021/2020; test: SARS-CoV-2 Infection Model in Huh7 Cells; format: cell-based; settings: Severe acute respiratory syndrome coronavirus 2, Huh-7, 96 h, SARS-CoV-2, day 4 p.i., MTS
[9] = tested on: SARS-CoV-2-GHB-03021/2020; test: microbe, parasite or virus in culture; format: cell-based; settings: Severe acute respiratory syndrome coronavirus 2, Vero C1008, 96 h; read-out: VeroE6 + CP (EC50)
[10] = OC43 in HeLa cells, 6 days at 33° C., class symbols, read-out: EC50
[11] = HRV3C, class symbols, read-out: HRV IC50
[12] = HRV3C, bound, read-out: HRV IC50

O=C(NC1CC1)C(=O)[C@H](C[C@@H]1CCNC1=O)NC(=O)[C@@H]1CC2(CCN1C(=O)c1cc3c(Cl)cccc3[nH]1)CC2 [Compound 145]
CC50 ([1]; numeric bounds): > 50 µM | EC50 [2, 10]: 1 to 10 µM | IC50 [3]: 0.1 to 1 µM | IC50 [4]: < 0.02 µM | IC50 [5, 11]: 0.02 to 0.2 µM | CC50 at 6 days [6]: > 10 µM | CC50 [7]: > 50 µM | EC50 ([8]; class symbols): 10 to 100 µM | EC50 [9]: 10 to 100 µM

Cc1ccc2[nH]c(C(=O)N3CCC4(CC4)C[C@H]3C(=O)N[C@@H](C[C@@H]3CCNC3=O)C(=O)C(=O)NC3CC3)cc2c1 [Compound 146]
CC50 ([1]; numeric bounds): > 50 µM | EC50 [2, 10]: 0.1 to 1 µM | IC50 [3]: 1 to 10 µM | IC50 [4]: < 0.02 µM | IC50 [5, 11]: 2 to 20 µM | CC50 at 6 days [6]: > 10 µM | CC50 [7]: > 10 µM | EC50 ([8]; class symbols): 1 to 10 µM | EC50 [9]: 1 to 10 µM

O=C(NC1CC1)C(=O)[C@H](C[C@@H]1CCNC1=O)NC(=O)[C@@H]1CC2(CCN1C(=O)c1cc3cc(F)ccc3[nH]1)CC2 [Compound 147]
CC50 ([1]; numeric bounds): > 50 µM | EC50 [2, 10]: 0.1 to 1 µM | IC50 [3]: ≥ 10 µM | IC50 [4]: < 0.02 µM | IC50 [5, 11]: 2 to 20 µM | CC50 at 6 days [6]: > 10 µM | CC50 [7]: > 50 µM | EC50 ([8]; class symbols): 10 to 100 µM | EC50 [9]: 10 to 100 µM

O=C(NC1CC1)C(=O)[C@H](C[C@@H]1CCNC1=O)NC(=O)[C@@H]1[C@H]2CCC[C@H]2CN1C(=O)c1cc2c(Cl)cc(Cl)cc2[nH]1 [Compound 148]
CC50 ([1]; numeric bounds): > 50 µM | EC50 [2, 10]: 0.1 to 1 µM | IC50 [3]: ≥ 10 µM | IC50 [4]: 0.02 to 0.2 µM | IC50 [5, 11]: 0.2 to 2 µM | CC50 at 6 days [6]: > 10 µM | CC50 [7]: > 10 µM | EC50 ([8]; class symbols): < 1 µM | EC50 [9]: < 1 µM

CC(C)COCCNC(=O)C(=O)[C@H](C[C@@H]1CCNC1=O)NC(=O)[C@@H]1[C@H]2CCC[C@H]2CN1C(=O)c1cc2c(Cl)cc(Cl)cc2[nH]1 [Compound 149, (1S,3aR,6aS)-2-(4,6-dichloro-1H-indole-2-carbonyl)-N—((S)-4-((2-isobutoxyethyl)amino)-3,4-dioxo-1-((S)-2-oxopyrrolidin-3-yl)butan-2-yl)octahydrocyclopenta[c]pyrrole-1-carboxamide]
CC50 ([1]; class symbols): > 10 µM | EC50 [2]: 0.1 to 1 µM | IC50 [3]: 1 to 10 µM | IC50 [4]: 0.02 to 0.2 µM | IC50 ([5]; HRV IC50, HRV3C, class symbols): 2 to 20 µM | CC50 at 6 days [6]: > 10 µM | CC50 [7]: 1 to 10 µM | EC50 ([8]; class symbols): < 1 µM | EC50 [9]: < 1 µM

COc1cccc2[nH]c(C(=O)N3C[C@@H]4CCC[C@@H]4[C@H]3C(=O)N[C@@H](C[C@@H]3CCNC3=O)C(=O)CO)c(F)c12 [Compound 151, (1S,3aR,6aS)-2-(3-fluoro-4-methoxy-1H-indole-2-carbonyl)-N—((S)-4-hydroxy-3-oxo-1-((S)-2-oxopyrrolidin-3-yl)butan-2-yl)octahydrocyclopenta[c]pyrrole-1-carboxamide]
CC50 ([1]; numeric bounds): > 50 µM | EC50 [2]: 1 to 10 µM | IC50 [3]: ≥ 10 µM | IC50 [4]: 0.02 to 0.2 µM | IC50 ([5]; HRV IC50, HRV3C, bound): > 10 µM | CC50 at 6 days [6]: > 10 µM | CC50 [7]: > 50 µM | EC50 ([8]; class symbols): 1 to 10 µM | EC50 [9]: 10 to 100 µM

CC(F)(F)c1cccc2[nH]c(C(=O)N3C[C@@H]4CCC[C@@H]4[C@H]3C(=O)N[C@@H](C[C@@H]3CCNC3=O)C(=O)CO)cc12 [Compound 152, (1S,3aR,6aS)-2-[4-(1,1-difluoroethyl)-1H-indole-2-carbonyl]-N-[(2S)-4-hydroxy-3-oxo-1-[(3S)-2-oxopyrrolidin-3-yl]butan-2-yl]-hexahydro-1H-cyclopenta[c]pyrrole-1-carboxamide]
CC50 ([1]; numeric bounds): > 50 µM | EC50 [2, 10]: 1 to 10 µM | IC50 [3]: ≥ 10 µM | IC50 [4]: 0.02 to 0.2 µM | IC50 [5, 12]: > 10 µM | CC50 at 6 days [6]: > 10 µM | CC50 [7]: > 50 µM | EC50 ([8]; class symbols): 10 to 100 µM | EC50 [9]: 10 to 100 µM

CNc1cccc2[nH]c(C(=O)N3C[C@@H]4CCC[C@@H]4[C@H]3C(=O)N[C@@H](C[C@@H]3CCNC3=O)C(=O)CO)cc12 [Compound 153, (1S,3aR,6aS)—N-[(2S)-4-hydroxy-3-oxo-1-[(3S)-2-oxopyrrolidin-3-yl]butan-2-yl]-2-[4-(methylamino)-1H-indole-2-carbonyl]-hexahydro-1H-cyclopenta[c]pyrrole-1-carboxamide]
CC50 ([1]; numeric bounds): > 50 µM | EC50 [2, 10]: 1 to 10 µM | IC50 [3]: ≥ 10 µM | IC50 [4]: 0.02 to 0.2 µM | IC50 [5, 12]: > 10 µM | CC50 at 6 days [6]: > 10 µM | CC50 [7]: > 10 µM | EC50 ([8]; class symbols): 10 to 100 µM | EC50 [9]: 10 to 100 µM

CSc1cccc2[nH]c(C(=O)N3C[C@@H]4CCC[C@@H]4[C@H]3C(=O)N[C@@H](C[C@@H]3CCNC3=O)C(=O)CO)cc12 [Compound 154, (1S,3aR,6aS)—N—((S)-4-hydroxy-3-oxo-1-((S)-2-oxopyrrolidin-3-yl)butan-2-yl)-2-(4-(methylthio)-1H-indole-2-carbonyl)octahydrocyclopenta[c]pyrrole-1-carboxamide]
CC50 ([1]; numeric bounds): > 50 µM | EC50 [2, 10]: 0.1 to 1 µM | IC50 [3]: ≥ 10 µM | IC50 [4]: < 0.02 µM | IC50 [5, 11]: 2 to 20 µM | CC50 at 6 days [6]: > 10 µM | CC50 [7]: > 50 µM | EC50 ([8]; class symbols): < 1 µM | EC50 [9]: 1 to 10 µM

CS(=O)(=O)Oc1cccc2[nH]c(C(=O)N3C[C@@H]4CCC[C@@H]4[C@H]3C(=O)N[C@@H](C[C@@H]3CCNC3=O)C(=O)CO)cc12 [Compound 155, 2-[(1S,3aR,6aS)-1-{[(2S)-4-hydroxy-3-oxo-1-[(3S)-2-oxopyrrolidin-3-yl]butan-2-yl]carbamoyl}-hexahydro-1H-cyclopenta[c]pyrrole-2-carbonyl]-1H-indol-4-yl methanesulfonate]
CC50 ([1]; numeric bounds): > 50 µM | EC50 [2, 10]: 1 to 10 µM | IC50 [3]: ≥ 10 µM | IC50 [4]: 0.02 to 0.2 µM | IC50 [5, 12]: > 10 µM | CC50 at 6 days [6]: > 10 µM | CC50 [7]: > 50 µM | EC50 ([8]; numeric bounds): > 50 µM | EC50 [9]: 10 to 100 µM

O=C1NCC[C@H]1C[C@H](NC(=O)[C@@H]1[C@H]2CCC[C@H]2CN1C(=O)c1cc2c(Cl)ccc(Cl)c2[nH]1)C(=O)CO [Compound 156, (1S,3aR,6aS)-2-(4,7-dichloro-1H-indole-2-carbonyl)-N-[(2S)-4-hydroxy-3-oxo-1-[(3S)-2-oxopyrrolidin-3-yl]butan-2-yl]-hexahydro-1H-cyclopenta[c]pyrrole-1-carboxamide]
CC50 ([1]; numeric bounds): > 50 µM | EC50 [2, 10]: 0.1 to 1 µM | IC50 [3]: ≥ 10 µM | IC50 [4]: < 0.02 µM | IC50 [5, 12]: > 10 µM | CC50 at 6 days [6]: > 10 µM | CC50 [7]: > 50 µM | EC50 ([8]; class symbols): < 1 µM | EC50 [9]: < 1 µM

COc1cc(Cl)c(Cl)c2[nH]c(C(=O)N3C[C@@H]4CCC[C@@H]4[C@H]3C(=O)N[C@@H](C[C@@H]3CCNC3=O)C(=O)CO)cc12 [Compound 158, (1S,3aR,6aS)-2-(6,7-dichloro-4-methoxy-1H-indole-2-carbonyl)-N-[(2S)-4-hydroxy-3-oxo-1-[(3S)-2-oxopyrrolidin-3-yl]butan-2-yl]-hexahydro-1H-cyclopenta[c]pyrrole-1-carboxamide]
CC50 ([1]; numeric bounds): > 50 µM | EC50 [2, 10]: 0.1 to 1 µM | IC50 [3]: ≥ 10 µM | IC50 [4]: < 0.02 µM | IC50 [5, 11]: 2 to 20 µM | CC50 at 6 days [6]: > 10 µM | CC50 [7]: > 10 µM | EC50 ([8]; class symbols): < 1 µM | EC50 [9]: < 1 µM

O=C1NCC[C@H]1C[C@H](NC(=O)[C@@H]1[C@H]2CCC[C@H]2CN1C(=O)c1cc2c([nH]1)CCS2(=O)=O)C(=O)CO [Compound 159, (1S,3aR,6aS)-2-{1,1-dioxo-2H,3H,4H-1λ6-thieno[3,2-b]pyrrole-5-carbonyl}-N-[(2S)-4-hydroxy-3-oxo-1-[(3S)-2-oxopyrrolidin-3-yl]butan-2-yl]-hexahydro-1H-cyclopenta[c]pyrrole-1-carboxamide]
CC50 ([1]; numeric bounds): > 50 µM | EC50 ([2]; OC43 in HeLa cells, 6 days at 33° C., bound, read-out: EC50): > 10 µM | IC50 [3]: ≥ 10 µM | IC50 [4]: 0.02 to 0.2 µM | IC50 [5, 12]: > 10 µM | CC50 at 6 days [6]: > 10 µM | CC50 [7]: > 50 µM | EC50 ([8]; numeric bounds): > 10 µM | EC50 [9]: 10 to 100 µM

O=C1NCC[C@H]1C[C@H](NC(=O)[C@@H]1[C@H]2CCC[C@H]2CN1C(=O)c1cc2c(Cl)cc(Cl)c(F)c2[nH]1)C(=O)CO [Compound 160, (1S,3aR,6aS)-2-(4,6-dichloro-7-fluoro-1H-indole-2-carbonyl)-N—((S)-4-hydroxy-3-oxo-1-((S)-2-oxopyrrolidin-3-yl)butan-2-yl)octahydrocyclopenta[c]pyrrole-1-carboxamide]
CC50 ([1]; numeric bounds): > 50 µM | EC50 [2, 10]: 0.1 to 1 µM | IC50 [3]: ≥ 10 µM | IC50 [4]: < 0.02 µM | IC50 [5, 12]: > 10 µM | CC50 at 6 days [6]: > 10 µM | CC50 [7]: > 10 µM | EC50 ([8]; class symbols): < 1 µM | EC50 [9]: < 1 µM
